Test results taken from patent publication US7868028B2 (priority 2002, dated 2011).
Where “and” joins values, the source holds several entries; their conditions need not be identical. Equal values may be shown once.

Tests used:
[1] = test system: voltage-gated sodium channel (site 1, [3H]Saxitoxin binding); parameters: species or system rat; for % inhibition: test concentration or dose not given here
[2] = test system: Male Sprague-Dawley rats; details: rat, in vivo; note: test concentration or dose not given here

Row | SMILES | % inhibition [1] | further results
1 | Cl.N=c1n(Cc2ccccc2)c2ccccc2n1CC(O)c1ccc(Cl)c(Cl)c1 (racemic) [Compound 2] | 46% | IC50 [1]: 21 µM; Average % MPE 5 minutes [2]: 100 % MPE; Average % MPE Day 4 [2]: 1 % MPE
2 | Cc1ccc(Cn2c(=N)n(CC(O)COc3ccccc3)c3ccccc32)cc1.Cl (racemic) [Compound 4] | 47% | IC50 [1]: 21 µM; Average % MPE 5 minutes [2]: 100 % MPE; Average % MPE Day 4 [2]: −2 % MPE
3 | Cl.N=c1n(Cc2ccccc2)c2ccccc2n1CC(O)c1ccccc1 (racemic) [Compound 5] | 38% | IC50 [1]: 41 µM; Average % MPE 5 minutes [2]: 100 % MPE; Average % MPE Day 4 [2]: 7 % MPE
4 | Cl.N=c1n(Cc2ccccc2)c2ccccc2n1CC(O)c1cccs1 (racemic) [Compound 6] | 52% | IC50 [1]: 43 µM; Average % MPE 5 minutes [2]: 93 % MPE and 80 % MPE and 100 % MPE
5 | CCCCn1c(=N)n(CC(O)COc2ccccc2)c2ccccc21.Cl (racemic) [Compound 8] | 41% | IC50 [1]: 87 µM; Average % MPE 5 minutes [2]: 100 % MPE
6 | CCn1c(=N)n(CC(O)COc2ccc(Cl)cc2)c2ccccc21.Cl (racemic) [Compound 21] | 13% | 
7 | Cl.N=c1n(CCN2CCOCC2)c2ccccc2n1CC(O)c1ccco1 (racemic) [Compound 25] | 16% | 
8 | COc1ccc(C(O)Cn2c(=N)n(C)c3ccccc32)cc1.Cl (racemic) [Compound 27] | 17% | 
9 | CCN(CC)CCn1c(=N)n(CC(O)c2ccc(OC)c(OC)c2)c2ccccc21.Cl (racemic) [Compound 31] | 19% | 
10 | Cl.N=c1n(CCN2CCOCC2)c2ccccc2n1CC(O)COc1ccccc1 (racemic) [Compound 33] | 20% | 
11 | Cl.N=c1n(CCN2CCOCC2)c2ccccc2n1CC(O)COc1ccc(Cl)cc1 (racemic) [Compound 35] | 20% | 
12 | C=CCn1c(=N)n(CC(O)C(C)(C)C)c2ccccc21.Cl (racemic) [Compound 36] | 22% | 
13 | CCOc1ccc(C(O)Cn2c(=N)n(CCN3CCCCC3)c3ccccc32)cc1.Cl (racemic) [Compound 37] | 22% | 
14 | C=CCn1c(=N)n(CC(O)c2ccc(Br)cc2)c2ccccc21.Cl (racemic) [Compound 39] | 24% | 
15 | Cl.N=c1n(CCN2CCCCC2)c2ccccc2n1CC(O)COc1ccc(Cl)cc1 (racemic) [Compound 40] | 24% | 
16 | Cl.Cn1c(=N)n(CC(O)COc2ccccc2)c2ccccc21 (racemic) [Compound 44] | 27% | 
17 | C=CCn1c(=N)n(CC(O)COc2ccc(Cl)cc2)c2ccccc21.Cl (racemic) [Compound 46] | 29% | 
18 | COc1ccc(C(O)Cn2c(=N)n(Cc3ccccc3)c3ccccc32)cc1.Cl (racemic) [Compound 47] | 32% | 
19 | CCCn1c(=N)n(CC(O)c2ccc(Cl)cc2)c2ccccc21.Cl (racemic) [Compound 48] | 32% | 
20 | C=CCn1c(=N)n(CC(O)c2ccc(C)cc2)c2ccccc21.Cl (racemic) [Compound 50] | 33% | 
21 | CN(C)CCn1c(=N)n(CC(O)c2ccc(Cl)c(Cl)c2)c2ccccc21.Cl (racemic) [Compound 51] | 36% | 
22 | CCN(CC)CCn1c(=N)n(CC(O)COc2ccccc2)c2ccccc21.Cl (racemic) [Compound 55] | — (key: —: A dash (-) indicates less than 10% inhibition was observed in this test) | 
23 | CCN(CC)CCn1c(=N)n(CC(O)COc2ccc(Cl)cc2)c2ccccc21.Cl (racemic) [Compound 56] | — (key: —: A dash (-) indicates less than 10% inhibition was observed in this test) | 

Row | SMILES | % inhibition [1] | further results
24 | Cl.Cn1c(=N)n(CC(O)COc2ccc(Cl)cc2)c2ccccc21 (racemic) [Compound 57] | — (key: —: A dash (-) indicates less than 10% inhibition was observed in this test) | 
25 | CC(C)(C)C(O)Cn1c(=N)n(Cc2ccc(Cl)cc2)c2ccccc21.Cl (racemic) [Compound 59] | — (key: —: A dash (-) indicates less than 10% inhibition was observed in this test) | 
26 | CCCCn1c(=N)n(CC(O)c2ccc(Br)cc2)c2ccccc21.Cl (racemic) [Compound 62] | — (key: —: A dash (-) indicates less than 10% inhibition was observed in this test) | 
27 | C=CCn1c(=N)n(CC(O)c2ccc(Cl)cc2)c2ccccc21.Cl (racemic) [Compound 64] | — (key: —: A dash (-) indicates less than 10% inhibition was observed in this test) | 
28 | Cl.N=c1n(Cc2ccc(Cl)cc2)c2ccccc2n1CC(O)c1ccco1 (racemic) [Compound 68] | — (key: —: A dash (-) indicates less than 10% inhibition was observed in this test) | 
29 | CC(C)(C)C(O)Cn1c(=N)n(CCN2CCCCC2)c2ccccc21.Cl (racemic) [Compound 69] | 18% | 
30 | Br.N=c1n(Cc2cccc3ccccc23)c2ccccc2n1CC(O)COc1ccccc1 (racemic) [Compound 73] | — (key: —: A dash (-) indicates less than 10% inhibition was observed in this test) | IC50 [1]: 107 µM
31 | Br.CCCCCCCCCCCn1c(=N)n(CC(O)COc2ccccc2)c2ccccc21 (racemic) [Compound 74] | 33% | IC50 [1]: 117 µM
32 | Br.N=c1n(CCN(Cc2ccccc2)Cc2ccccc2)c2ccccc2n1CC(O)COc1ccccc1 (racemic) [Compound 76] | — (key: —: A dash (-) indicates less than 10% inhibition was observed in this test) | IC50 [1]: 100 µM
33 | Br.N=c1n(Cc2ccccc2)c2ccccc2n1CC(O)Cc1ccccc1 (racemic) [Compound 77] | 27% | IC50 [1]: 81 µM
34 | CC(C)(C)c1ccc(Cn2c(=N)n(CC(O)COc3ccccc3)c3ccccc32)cc1.Cl (stereo not drawn) [Compound 12] | 59% | IC50 [1]: 34 µM
35 | Cl.Cn1c(=N)n(CC(O)c2ccc(Cl)c(Cl)c2)c2ccccc21 (stereo not drawn) [Compound 13] | 46% | IC50 [1]: 232 µM
36 | Cl.N=c1n(Cc2ccc(Cl)cc2)c2ccccc2n1CC(O)COc1ccccc1 (stereo not drawn) [Compound 14] | 16% | 
37 | Cl.N=c1n(Cc2ccc(Cl)cc2)c2ccccc2n1CC(O)COc1ccc(Cl)cc1 (stereo not drawn) [Compound 15] | 11% | 
38 | Cl.N=c1n(CCN2CCOCC2)c2ccccc2n1CC(O)c1cccs1 (stereo not drawn) [Compound 16] | 17% | 
39 | CCn1c(=N)n(CC(O)c2cccs2)c2ccccc21.Cl (stereo not drawn) [Compound 17] | 11% | 
40 | CCCCn1c(=N)n(CC(O)c2ccccc2)c2ccccc21.Cl (stereo not drawn) [Compound 18] | 11% | 
41 | CCn1c(=N)n(CC(O)COc2ccccc2)c2ccccc21.Cl (stereo not drawn) [Compound 19] | 11% | 
42 | CCCn1c(=N)n(CC(O)COc2ccccc2)c2ccccc21.Cl (stereo not drawn) [Compound 20] | 12% | 
43 | Cl.Cn1c(=N)n(CC(O)C23CC4CC(CC(C4)C2)C3)c2ccccc21 (stereo not drawn) [Compound 23] | 15% | 
44 | CC(O)Cn1c(=N)n(Cc2ccccc2)c2ccccc21.Cl (stereo not drawn) [Compound 24] | 16% | 
45 | CC(C)(C)C(O)Cn1c(=N)n(Cc2ccccc2)c2ccccc21.Cl (stereo not drawn) [Compound 26] | 17% | 
46 | CCN(CC)CCn1c(=N)n(CC(O)c2ccc(C)cc2)c2ccccc21.Cl (stereo not drawn) [Compound 28] | 17% | 

Row | SMILES | % inhibition [1] | further results
47 | CCCn1c(=N)n(CC(O)COc2ccc(Cl)cc2)c2ccccc21.Cl (stereo not drawn) [Compound 29] | 18% | 
48 | Cl.N=c1n(CCN2CCCCC2)c2ccccc2n1CC(O)c1ccccc1 (stereo not drawn) [Compound 30] | 18% | 
49 | Cl.N=c1n(CCN2CCCCC2)c2ccccc2n1CC(O)c1cccc2ccccc12 (stereo not drawn) [Compound 32] | 20% | 
50 | Cl.Cn1c(=N)n(CC(O)c2cccs2)c2ccccc21 (stereo not drawn) [Compound 34] | 20% | 
51 | Cl.N=c1n(CCN2CCCCC2)c2ccccc2n1CC(O)c1cccs1 (stereo not drawn) [Compound 38] | 22% | 
52 | C=CCn1c(=N)n(CC(O)COc2ccccc2)c2ccccc21.Cl (stereo not drawn) [Compound 41] | 25% | 
53 | CCN(CC)CCn1c(=N)n(CC(O)c2ccc(Cl)c(Cl)c2)c2ccccc21.Cl (stereo not drawn) [Compound 42] | 25% | 
54 | CCCn1c(=N)n(CC(O)c2ccccc2)c2ccccc21.Cl (stereo not drawn) [Compound 43] | 26% | 
55 | COc1ccc(C(O)Cn2c(=N)n(CCN3CCCCC3)c3ccccc32)cc1.Cl (stereo not drawn) [Compound 45] | 28% | 
56 | C=CCn1c(=N)n(CC(O)c2ccc(OCC)cc2)c2ccccc21.Cl (stereo not drawn) [Compound 49] | 32% | 
57 | Cc1ccc(Cn2c(=N)n(CC(O)COc3ccc(Cl)cc3)c3ccccc32)cc1.Cl (stereo not drawn) [Compound 52] | 37% | 
58 | CCCCn1c(=N)n(CC(O)c2ccc(Cl)cc2)c2ccccc21.Cl (stereo not drawn) [Compound 53] | — (key: —: A dash (-) indicates less than 10% inhibition was observed in this test) | 
59 | Cl.Cn1c(=N)n(CC(O)c2ccc(Cl)cc2)c2ccccc21 (stereo not drawn) [Compound 54] | — (key: —: A dash (-) indicates less than 10% inhibition was observed in this test) | 
60 | Cl.Cn1c(=N)n(CC(O)c2cccc3ccccc23)c2ccccc21 (stereo not drawn) [Compound 58] | — (key: —: A dash (-) indicates less than 10% inhibition was observed in this test) | 
61 | CCCn1c(=N)n(CC(O)c2ccc(C)cc2)c2ccccc21.Cl (stereo not drawn) [Compound 60] | — (key: —: A dash (-) indicates less than 10% inhibition was observed in this test) | 
62 | CCCn1c(=N)n(CC(C)O)c2ccccc21.Cl (stereo not drawn) [Compound 61] | — (key: —: A dash (-) indicates less than 10% inhibition was observed in this test) | 
63 | Cl.N=c1n(Cc2ccccc2)c2ccccc2n1CC(O)c1ccc(Br)cc1 (stereo not drawn) [Compound 63] | — (key: —: A dash (-) indicates less than 10% inhibition was observed in this test) | 
64 | Cl.Cn1c(=N)n(CC(O)c2ccccc2)c2ccccc21 (stereo not drawn) [Compound 65] | — (key: —: A dash (-) indicates less than 10% inhibition was observed in this test) | 
65 | CC(O)Cn1c(=N)n(C)c2ccccc21.Cl (stereo not drawn) [Compound 66] | — (key: —: A dash (-) indicates less than 10% inhibition was observed in this test) | 
66 | Cl.N=c1n(Cc2ccccc2)c2ccccc2n1CC(O)c1ccco1 (stereo not drawn) [Compound 67] | — (key: —: A dash (-) indicates less than 10% inhibition was observed in this test) | 
67 | Br.CCCCCCCCn1c(=N)n(CC(O)COc2ccccc2)c2ccccc21 (stereo not drawn) [Compound 72] | 20% | IC50 [1]: 66 µM
